Publication PMC5773577, “Novel Miniature Membrane Active Lipopeptidomimetics against Planktonic and Biofilm Embedded Methicillin-Resistant Staphylococcus aureus” (Scientific Reports, 2018)
In brackets after ≈: the same amount, converted by molar mass. Like-named read-outs stand apart in the source and are kept apart here. Non-standard residues stand in square brackets, D forms with d. Residues, ends and D or L forms follow the SMILES beside them. No end group written: not given here. d1Nal = N[C@H](Cc1cccc2ccccc12)C(=O)O; 12Ado = NCCCCCCCCCCCC(=O)O; Aoc = NCCCCCCCC(=O)O

Columns and labels:
[1] = tested on: mouse red blood cells (RBCs); assay: Hemolysis assay; assay type: cell-based; conditions: mouse RBC, up to 250 μg/mL, 1 h, 37 °C, PBS pH 7.4; 0.1% Triton X-100 = 100%; data not shown
Experimental: For the experiment, a previously defined procedure was used with slight modifications[67],[68]. Briefly, blood was withdrawn from mice on the day of the experiment. After washing red blood cells (RBC) twice with phosphate buffer saline (PBS: 35 mM sodium phosphate, 150 mM NaCl, pH 7.4), a 4% v/v suspension of RBC was prepared in the same buffer. In a 96-well plate, serial two-fold dilutions of desired concentrations of peptidomimetics (in PBS) were prepared (100 μL) in duplicate. To each well 100 μL of 4% v/v RBC suspension was added. The plates were incubated at 37 °C for 1 h. After 1 h, the plates were centrifuged at 1500 rpm for 10 min and 20 μL of the supernatant was transferred to a fresh 96-well plate containing 80 μL PBS. The hemoglobin release was quantified by measuring OD414 in an ELISA plate reader (Molecular Devices, Sunnyvale, CA, USA). Hemoglobin release from 0.1% Triton X-100 treated RBC was set as 100% lysis (Amax) while as negative control RBC suspended in PBS alone was used (APBS). Percentage hemolysis was calculated using the following equation:1 %hemolysis=[(Asample−APBS)/(Amax−APBS)]×100

[2] = tested on: Methicillin-resistant S. epidermidis (ATCC 35984); assay: microbe, parasite or virus in culture; assay type: cell-based, Staphylococcus epidermidis; conditions: MRSE ATCC 35984; MHB, 2–5 × 10^5 CFU/mL, 16–18 h, 37 °C, OD600
Experimental: (§1) The antibacterial activity was evaluated as MIC using slight modifications to a serial broth micro dilution method as reported previously[66],[67]. Briefly, to each treatment well of the 96-well plate (Corning Incorporated, USA) 10 μL of peptidomimetic/antibiotic was added and subsequently diluted serial 2-fold in 0.2% BSA (in 0.01% acetic acid). Then to each well of the first 11 columns 100 μL of mid-log phase bacterial suspension in MHB medium was added to get 2–5 × 10^5 CFU/mL. Cultures without test peptidomimetics/antibiotics were used as growth control. Uninoculated MHB medium was used as negative control. The microtitre plates were incubated overnight with agitation (180 rpm) at 37 °C. After 16–18 h incubation, absorbance was read at 600 nm using an ELISA plate reader (Molecular Devices, Sunnyvale, CA, USA). The experiments were carried out in duplicate on at least three different days.

[3] = tested on: Escherichia coli (ATCC 11775); assay type: cell-based
Experimental: as §1

MRSA (ATCC 43300) = assay: microbe, parasite or virus in culture; assay type: cell-based, Staphylococcus aureus; conditions: MHB, 2–5 × 10^5 CFU/mL, 16–18 h, 37 °C, OD600
Experimental: as §1

S. aureus (ISP479R) = assay type: cell-based, Staphylococcus aureus; conditions: MHB, 2–5 × 10^5 CFU/mL, 16–18 h, 37 °C, OD600
Experimental: as §1

[4] = tested on: 3T3 murine fibroblast cell line; assay: Cytotoxicity, MTT assay; assay type: cell-based; conditions: 3T3 fibroblasts, 2 h, DMEM with 10% FBS, mean ± S.D., triplicate on two days
Experimental: For the active peptidomimetics cytotoxicity was measured against 3T3 murine fibroblast cell line using a previously defined MTT assay with slight modifications. Briefly, the cells were grown to over 75% confluence in DMEM supplemented with 10% FBS and antibiotics (1 × Anti-anti) at 37 °C in 5% CO2 atmosphere. The cells were transferred to a 24-well plate to a final count of ~8 × 10^4 cells/well. […] The plates were kept for 2 h at 37 °C in 5% CO2 incubator. After 2 h, the cells were washed once with 1 mL PBS. Then 1 mL MTT (0.1 mg/mL) was added to each well in dark and incubated for 2 h at 37 °C in 5% CO2. After 2 h, 200 μL of DMSO was added to the wells to dissolve the formazan crystals formed and the plates were kept for 5 min in the incubator at 37 °C. 100 μL of the suspension was transferred to a fresh 96-well plate and absorbance (Asample) was measured at 570 nm in an ELISA plate reader (Molecular Devices, Sunnyvale, CA, USA). The wells with DMSO treatment were set as untreated control (Auntreated control). The assay was done in triplicate on two different days. The % survival was calculated using the following equation:2 %survival=[Asample/Auntreatedcontrol]×100

[5] = tested on: E. faecium (E-7846), clinical isolate of vancomycin-resistant E. faecium; assay: organism not typed; assay type: cell-based, Enterococcus faecium; conditions: VRE clinical isolate E-7846; MHB, 2–5 × 10^5 CFU/mL, 16–18 h, 37 °C
Experimental: as §1

S. aureus (ISP479C) = assay: microbe, parasite or virus in culture; assay type: cell-based, Staphylococcus aureus; conditions: MHB, 2–5 × 10^5 CFU/mL, 16–18 h, 37 °C, OD600
Experimental: as §1

S. aureus (ATCC 29213) = assay: microbe, parasite or virus in culture; assay type: cell-based, Staphylococcus aureus; conditions: MHB, 2–5 × 10^5 CFU/mL, 16–18 h, 37 °C, OD600, duplicate, at least three days
Experimental: as §1

MRSA (ATCC 33591) = assay: microbe, parasite or virus in culture; assay type: cell-based, Staphylococcus aureus; conditions: MHB, 2–5 × 10^5 CFU/mL, 16–18 h, 37 °C, OD600
Experimental: as §1

[6] = tested on: E. faecium (E-447), clinical isolate of vancomycin-resistant E. faecium; assay: organism not typed; assay type: cell-based, Enterococcus faecium; conditions: VRE clinical isolate E-447; MHB, 2–5 × 10^5 CFU/mL, 16–18 h, 37 °C
Experimental: as §1

MRSA ATCC 33591 [7] = assay: microbe, parasite or virus in culture; assay type: cell-based, Staphylococcus aureus
Experimental: An initial inoculum of mid-log phase 10^7 CFU/mL was used and MIC experiment was performed as described earlier. For serum/plasma stability assay a method as described previously was used with slight modifications. Briefly, 50 μL MHB medium containing desired concentration of test peptidomimetics was incubated with 50 µL mice plasma/fetal bovine serum for 3 h at 37 °C. After incubation, a 10 μL aliquot was taken out for MIC determination as described above. For the experiment, mid-log phase 2–5 × 10^5 CFU/mL were used as initial inoculum. For the growth control wells, an equivalent amount of plasma/FBS in the medium was also added to evaluate their effect on the viability of cells. A slight decrease in OD600 of cells incubated with mice plasma was observed compared to untreated growth control in MHB alone. The experiments were repeated on two different days and reproducible MIC values were observed.

MRSA ATCC 33591 [8] = assay: Resistance development over 17 serial passages at sub-MIC; assay type: cell-based, Staphylococcus aureus; conditions: for MIC: Staphylococcus aureus
Experimental: For the experiment, a method as described previously was used with slight modifications. Briefly, for the experiment, on day 1 the initial MICs of all test agents were determined using routine MIC experiment protocol as described earlier. Next day, bacterial cells (100 μL) from the wells with concentrations 2–4 fold less than the MIC value for each test agent were used to set up fresh mid-log phase cultures in MHB medium for setting up the MIC plate. This was repeated for a total of 17 sub-lethal treatments with each antimicrobial agent. For every passage, corresponding glycerol stocks (15% v/v) were made for each culture and were kept at −80 °C for future use.

For N=C(N)NCCC[C@H](NC(=O)[C@@H](N)Cc1c[nH]c2ccccc12)C(=O)N[C@H](Cc1ccccc1C(F)(F)F)C(=O)N[C@@H](CCCNC(=N)N)C(=O)N[C@@H](Cc1c[nH]c2ccccc12)C(N)=O [S-2, Trp-Arg-(2-trifluoromethyl-D-Phe)-Arg-Trp-CONH2] (HELM PEPTIDE1{W.R.[O=C([C@@H](Cc1ccccc1C(F)(F)F)N[*:1])[*:2]].R.W.[am]}$$$$V2.0), the “% hemolysis” value [1] was under 5%.
For N=C(N)NCCC[C@H](NC(=O)[C@@H](N)Cc1c[nH]c2ccccc12)C(=O)N[C@H](Cc1cccc2ccccc12)C(=O)N[C@@H](CCCNC(=N)N)C(=O)N[C@@H](Cc1c[nH]c2ccccc12)C(N)=O [S-3, Trp-Arg-(D-1-Nal)-Arg-Trp-CONH2] (HELM PEPTIDE1{W.R.[O=C([C@@H](Cc1cccc2ccccc12)N[*:1])[*:2]].R.W.[am]}$$$$V2.0), the “% hemolysis” value [1] was under 5%.
With N=C(N)NCCC[C@H](NC(=O)[C@@H](Cc1cccc2ccccc12)NC(=O)CCCCCCCCCCCNC(=O)[C@@H](Cc1cccc2ccccc12)NC(=O)[C@@H](N)CCCNC(=N)N)C(N)=O [S-8, Arg-(D-1-Nal)-(12-ADO)-(D-1-Nal)-Arg-CONH2] (H-R[d1Nal][12Ado][d1Nal]R-NH2) the “Minimum inhibitory concentration, MIC” value [2] was 1.4 µg/mL (≈ 1.52 µM), the MIC [3] was 5.6 µg/mL (≈ 6.08 µM) and the “Minimum inhibitory concentration, MIC” value (MRSA (ATCC 43300)) was 1.4 µg/mL (≈ 1.52 µM). The “Minimum inhibitory concentration, MIC” value (S. aureus (ISP479R)) was 0.7 µg/mL (≈ 0.76 µM), the “% viable cells relative to untreated control (MTT)” value ([4]; 10× MIC) was 84.8 ± 5.6% and the “% viable cells relative to untreated control (MTT)” value ([4]; 20 × MIC) was 81.1 ± 2.9%. For the same molecule, the “Minimum inhibitory concentration, MIC” value [5] was 5.6 µg/mL (≈ 6.08 µM).
For N=C(N)NCCC[C@H](NC(=O)CCCCCCCNC(=O)[C@H](CCCNC(=N)N)NC(=O)[C@@H](N)Cc1c[nH]c2ccccc12)C(=O)N[C@@H](Cc1c[nH]c2ccccc12)C(N)=O [S-5, Trp-Arg-(8-AOA)-Arg-Trp-CONH2] (HELM PEPTIDE1{W.R.[O=C(CCCCCCCN[*:1])[*:2]].R.W.[am]}$$$$V2.0), the “% hemolysis” value [1] was under 5%.
For N=C(N)NCCC[C@H](NC(=O)CCCCCCCCCCCNC(=O)[C@H](CCCNC(=N)N)NC(=O)[C@@H](N)Cc1c[nH]c2ccccc12)C(=O)N[C@@H](Cc1c[nH]c2ccccc12)C(N)=O [S-6, Trp-Arg-(12-ADO)-Arg-Trp-CONH2] (HELM PEPTIDE1{W.R.[O=C(CCCCCCCCCCCN[*:1])[*:2]].R.W.[am]}$$$$V2.0), the “Minimum inhibitory concentration, MIC” value [2] was 11.3 µg/mL (≈ 12.6 µM), the MIC [3] was over 45.4 µg/mL and the “Minimum inhibitory concentration, MIC” value (S. aureus (ISP479C)) was 11.3 µg/mL (≈ 12.6 µM). The “Minimum inhibitory concentration, MIC” value (MRSA (ATCC 43300)) was 11.3 µg/mL (≈ 12.6 µM), the “Minimum inhibitory concentration, MIC” value (S. aureus (ATCC 29213)) was 11.3 µg/mL (≈ 12.6 µM) and the “Minimum inhibitory concentration, MIC” value (MRSA (ATCC 33591)) was 11.3 µg/mL (≈ 12.6 µM). The “Minimum inhibitory concentration, MIC” value (S. aureus (ISP479R)) was 11.3 µg/mL (≈ 12.6 µM), the “% viable cells relative to untreated control (MTT)” value ([4]; 10× MIC) was “no decrease in cell viability” and the “% viable cells relative to untreated control (MTT)” value ([4]; 20 × MIC) was “no decrease in cell viability”. For the same molecule, the “Minimum inhibitory concentration, MIC” value [6] was 11.3 µg/mL (≈ 12.6 µM), the “Minimum inhibitory concentration, MIC” value [5] was 11.3 µg/mL (≈ 12.6 µM) and the “Minimum inhibitory concentration, MIC” value (MRSA ATCC 33591 [7]; ATCC 33591, 3 h) was 22.7 µg/mL (≈ 25.2 µM). The “Minimum inhibitory concentration, MIC” value (MRSA ATCC 33591 [7]; MRSA ATCC 33591, initial inoculum 10^7 CFU/mL, mid-log phase) was 11.3 µg/mL (≈ 12.6 µM).
In the case of “WRWRW-NH2 [S-1, Trp-Arg-Trp-Arg-Trp-CONH2]”, the “% hemolysis” value [1] is reported as under 5%.
O=C(O)c1cn(C2CC2)c2cc(N3CCNCC3)c(F)cc2c1=O [CIP, Ciprofloxacin] was tested, and the MIC (MRSA ATCC 33591 [8]; read-out: final MIC) was 11.3 µg/mL (≈ 34.1 µM), the MIC (MRSA ATCC 33591 [8]; read-out: initial MIC) was 0.17 µg/mL (≈ 0.513 µM) and the “fold increase in MIC” value (MRSA ATCC 33591 [8]; at 6th passage) was about 16 fold. For the same molecule, the “fold increase in MIC” value (MRSA ATCC 33591 [8]; over 17 passages (final MIC / initial MIC)) was 66.8 fold.
In the case of N=C(N)NCCC[C@H](NC(=O)[C@@H](Cc1cccc2ccccc12)NC(=O)CCCCCCCNC(=O)[C@@H](Cc1cccc2ccccc12)NC(=O)[C@@H](N)CCCNC(=N)N)C(N)=O [S-9, Arg-(D-1-Nal)-(8-AOA)-(D-1-Nal)-Arg-CONH2] (H-R[d1Nal][Aoc][d1Nal]R-NH2), the “Minimum inhibitory concentration, MIC” value [2] is reported as 45.4 µg/mL (≈ 52.5 µM), the “Minimum inhibitory concentration, MIC” value (S. aureus (ISP479C)) is reported as 45.4 µg/mL (≈ 52.5 µM) and the “Minimum inhibitory concentration, MIC” value (MRSA (ATCC 43300)) is reported as over 45.4 µg/mL. The “Minimum inhibitory concentration, MIC” value (S. aureus (ISP479R)) was 45.4 µg/mL (≈ 52.5 µM) and the “% hemolysis” value [1] was under 5%.
